Measured values: patent publication US8658685B2, “Methods for treatment of kallikrein-related disorders” (Activesite Pharmaceuticals, Inc., priority 2008, dated 2014)
pKi: −log10 of the molar value.

How the values were obtained:
[1] = molecular target: purified human plasma kallikrein (PK) (Homo sapiens, UniProt P03952); assay: Inhibitor profile of ASP-440: plasma kallikrein; format: biochemical
[2] = molecular target: T1, Factor XIIa (Homo sapiens, UniProt P00748); assay: Inhibitor profile of ASP-440: Factor XIIa; format: biochemical
T1 sequence (P00748 373-615 limits assumed): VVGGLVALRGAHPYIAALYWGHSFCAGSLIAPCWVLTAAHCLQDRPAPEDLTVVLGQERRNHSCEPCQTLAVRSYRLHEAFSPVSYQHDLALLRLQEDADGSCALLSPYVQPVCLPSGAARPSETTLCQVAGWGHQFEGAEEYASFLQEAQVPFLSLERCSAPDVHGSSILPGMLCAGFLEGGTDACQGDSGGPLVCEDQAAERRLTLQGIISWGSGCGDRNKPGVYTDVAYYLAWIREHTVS

[3] = molecular target: Factor XIa (Homo sapiens, UniProt P03951); assay: Inhibitor profile of ASP-440: Factor XIa; format: biochemical
Chain of Factor XIa (P03951 388-625 limits assumed): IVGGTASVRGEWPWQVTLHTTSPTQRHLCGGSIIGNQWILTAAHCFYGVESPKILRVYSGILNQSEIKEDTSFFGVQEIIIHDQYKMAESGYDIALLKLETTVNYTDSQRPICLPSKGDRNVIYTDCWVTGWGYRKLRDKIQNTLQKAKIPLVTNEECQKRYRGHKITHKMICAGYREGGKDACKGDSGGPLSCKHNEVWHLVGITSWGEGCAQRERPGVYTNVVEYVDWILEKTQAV
Chain of Factor XIa (P03951 19-387 partner limits assumed): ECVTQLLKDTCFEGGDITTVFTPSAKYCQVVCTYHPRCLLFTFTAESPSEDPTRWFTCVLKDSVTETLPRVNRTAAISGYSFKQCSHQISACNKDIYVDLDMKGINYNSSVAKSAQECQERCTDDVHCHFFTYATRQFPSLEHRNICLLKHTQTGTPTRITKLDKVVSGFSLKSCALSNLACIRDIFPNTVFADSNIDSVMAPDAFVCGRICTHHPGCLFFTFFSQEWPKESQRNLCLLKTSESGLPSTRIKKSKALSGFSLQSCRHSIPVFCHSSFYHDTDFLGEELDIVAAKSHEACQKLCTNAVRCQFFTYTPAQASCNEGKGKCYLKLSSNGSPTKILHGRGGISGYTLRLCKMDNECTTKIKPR

[4] = molecular target: Factor IXa (Homo sapiens, UniProt P00740); assay: Inhibitor profile of ASP-440: Factor IXa; format: biochemical
Chain of Factor IXa (P00740 227-461 limits assumed): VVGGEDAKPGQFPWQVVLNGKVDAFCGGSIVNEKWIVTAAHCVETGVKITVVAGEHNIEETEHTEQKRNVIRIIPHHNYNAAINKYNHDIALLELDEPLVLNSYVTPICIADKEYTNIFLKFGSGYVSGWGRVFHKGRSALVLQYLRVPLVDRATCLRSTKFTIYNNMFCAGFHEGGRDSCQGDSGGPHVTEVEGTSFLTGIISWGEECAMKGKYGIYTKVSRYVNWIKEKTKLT
Chain of Factor IXa (P00740 47-191 partner limits assumed): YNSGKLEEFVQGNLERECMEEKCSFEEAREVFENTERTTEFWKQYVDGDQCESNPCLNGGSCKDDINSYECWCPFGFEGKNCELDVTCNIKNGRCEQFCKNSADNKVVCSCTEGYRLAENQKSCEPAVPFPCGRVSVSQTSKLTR

[5] = molecular target: Tissue Factor-Factor VIIa (Homo sapiens, UniProt P08709); assay: Inhibitor profile of ASP-440: Tissue Factor-Factor VIIa; format: biochemical
Chain of Tissue Factor-Factor VIIa (P08709 213-466 limits assumed): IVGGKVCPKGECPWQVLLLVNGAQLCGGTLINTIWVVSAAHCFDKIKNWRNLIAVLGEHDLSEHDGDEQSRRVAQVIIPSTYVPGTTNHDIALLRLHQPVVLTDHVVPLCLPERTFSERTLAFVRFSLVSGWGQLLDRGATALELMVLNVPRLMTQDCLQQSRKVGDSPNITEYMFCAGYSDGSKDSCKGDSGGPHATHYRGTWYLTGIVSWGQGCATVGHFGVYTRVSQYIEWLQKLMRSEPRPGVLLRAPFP
Chain of Tissue Factor-Factor VIIa (P08709 61-212 partner limits assumed): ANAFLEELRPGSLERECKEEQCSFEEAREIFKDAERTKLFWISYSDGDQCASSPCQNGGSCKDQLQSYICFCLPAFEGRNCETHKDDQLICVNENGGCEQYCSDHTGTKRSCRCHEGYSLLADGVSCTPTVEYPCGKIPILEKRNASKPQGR
Chain of Tissue Factor-Factor VIIa (P13726 33-295 partner): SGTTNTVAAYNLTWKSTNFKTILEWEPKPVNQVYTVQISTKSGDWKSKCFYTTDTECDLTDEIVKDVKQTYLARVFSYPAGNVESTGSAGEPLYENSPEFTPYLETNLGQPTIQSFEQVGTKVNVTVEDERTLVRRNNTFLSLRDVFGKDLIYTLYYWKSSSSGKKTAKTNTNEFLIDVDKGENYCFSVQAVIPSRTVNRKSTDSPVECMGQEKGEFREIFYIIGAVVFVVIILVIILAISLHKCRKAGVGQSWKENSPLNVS

[6] = molecular target: Factor Xa (Homo sapiens, UniProt P00742); assay: Inhibitor profile of ASP-440: Factor Xa; format: biochemical
Chain of Factor Xa (P00742 235-488 limits assumed): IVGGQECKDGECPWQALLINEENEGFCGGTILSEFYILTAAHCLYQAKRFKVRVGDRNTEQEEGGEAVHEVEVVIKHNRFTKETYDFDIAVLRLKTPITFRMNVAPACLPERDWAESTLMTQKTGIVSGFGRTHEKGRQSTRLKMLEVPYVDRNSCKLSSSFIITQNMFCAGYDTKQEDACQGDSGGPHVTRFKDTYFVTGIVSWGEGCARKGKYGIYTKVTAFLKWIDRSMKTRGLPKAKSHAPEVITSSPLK
Chain of Factor Xa (P00742 41-179 partner limits assumed): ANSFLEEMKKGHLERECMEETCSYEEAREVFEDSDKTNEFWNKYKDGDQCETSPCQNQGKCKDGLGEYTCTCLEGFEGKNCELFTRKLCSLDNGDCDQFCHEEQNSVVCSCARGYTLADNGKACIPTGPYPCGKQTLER

[7] = molecular target: Thrombin (Homo sapiens, UniProt P00734); assay: Inhibitor profile of ASP-440: Thrombin; format: biochemical
[8] = molecular target: Plasmin (Homo sapiens, UniProt P00747); assay: Inhibitor profile of ASP-440: Plasmin; format: biochemical
Chain of Plasmin (P00747 581-810 limits assumed, species assumed): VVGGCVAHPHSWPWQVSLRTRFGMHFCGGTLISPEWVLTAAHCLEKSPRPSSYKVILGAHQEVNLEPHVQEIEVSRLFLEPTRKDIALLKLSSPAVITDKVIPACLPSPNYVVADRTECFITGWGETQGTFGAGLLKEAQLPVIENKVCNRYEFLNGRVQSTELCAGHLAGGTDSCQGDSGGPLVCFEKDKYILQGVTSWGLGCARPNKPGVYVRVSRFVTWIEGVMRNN
Chain of Plasmin (P00747 97-580 partner limits assumed, species assumed): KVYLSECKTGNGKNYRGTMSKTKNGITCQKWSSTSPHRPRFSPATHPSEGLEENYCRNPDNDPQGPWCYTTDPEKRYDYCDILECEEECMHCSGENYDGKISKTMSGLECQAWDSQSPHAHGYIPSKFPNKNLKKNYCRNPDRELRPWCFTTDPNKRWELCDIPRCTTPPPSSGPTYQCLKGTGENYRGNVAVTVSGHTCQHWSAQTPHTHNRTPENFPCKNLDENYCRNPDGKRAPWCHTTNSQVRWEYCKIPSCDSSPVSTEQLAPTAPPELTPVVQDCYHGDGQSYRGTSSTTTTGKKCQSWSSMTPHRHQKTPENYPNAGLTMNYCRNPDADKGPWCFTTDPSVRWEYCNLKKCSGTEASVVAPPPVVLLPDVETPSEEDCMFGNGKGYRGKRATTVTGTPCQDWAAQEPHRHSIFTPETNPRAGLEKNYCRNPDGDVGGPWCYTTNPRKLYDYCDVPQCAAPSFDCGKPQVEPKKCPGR

[9] = molecular target: Porcine Pancreatic Kallikrein (Sus scrofa, UniProt P00752); assay: Inhibitor profile of ASP-440: Porcine Pancreatic Kallikrein; format: biochemical
Chain of Porcine Pancreatic Kallikrein (P00752 8-246): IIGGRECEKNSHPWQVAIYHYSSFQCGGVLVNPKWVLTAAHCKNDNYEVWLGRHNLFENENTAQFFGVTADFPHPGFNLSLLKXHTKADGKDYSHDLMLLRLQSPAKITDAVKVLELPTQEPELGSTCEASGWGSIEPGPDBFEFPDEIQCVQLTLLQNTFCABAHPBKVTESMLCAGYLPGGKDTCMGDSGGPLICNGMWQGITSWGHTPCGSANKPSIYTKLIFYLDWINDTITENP

[10] = molecular target: T2, endogenous PK in human plasma (Homo sapiens, UniProt P03952); assay: Inhibition of endogenous PK in human plasma; format: biochemical; settings: read-out: Kiapp
T2 construct: from tissue; host or cells: human plasma
T2 sequence (P03952 20-638): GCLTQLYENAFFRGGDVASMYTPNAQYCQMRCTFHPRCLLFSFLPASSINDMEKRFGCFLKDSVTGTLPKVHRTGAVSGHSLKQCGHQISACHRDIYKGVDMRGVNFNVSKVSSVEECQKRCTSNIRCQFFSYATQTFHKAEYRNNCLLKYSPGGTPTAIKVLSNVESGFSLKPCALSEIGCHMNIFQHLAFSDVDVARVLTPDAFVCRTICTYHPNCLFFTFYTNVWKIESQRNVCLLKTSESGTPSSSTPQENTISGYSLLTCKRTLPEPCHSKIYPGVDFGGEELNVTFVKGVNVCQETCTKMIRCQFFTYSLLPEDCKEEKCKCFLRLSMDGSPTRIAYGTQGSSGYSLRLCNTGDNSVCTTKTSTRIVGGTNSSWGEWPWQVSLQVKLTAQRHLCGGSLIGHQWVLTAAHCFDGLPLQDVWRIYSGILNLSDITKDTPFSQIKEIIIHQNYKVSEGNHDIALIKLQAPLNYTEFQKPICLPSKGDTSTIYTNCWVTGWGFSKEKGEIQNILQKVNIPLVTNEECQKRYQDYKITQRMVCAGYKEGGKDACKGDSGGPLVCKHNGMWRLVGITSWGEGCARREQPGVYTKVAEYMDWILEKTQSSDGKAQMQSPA

[11] = molecular target: T3, endogenous PK in rat plasma (Rattus norvegicus, UniProt P14272); assay: Inhibition of endogenous PK in rat plasma; format: biochemical; settings: read-out: Kiapp
T3 construct: from tissue; host or cells: rat plasma
T3 sequence (P14272 20-638): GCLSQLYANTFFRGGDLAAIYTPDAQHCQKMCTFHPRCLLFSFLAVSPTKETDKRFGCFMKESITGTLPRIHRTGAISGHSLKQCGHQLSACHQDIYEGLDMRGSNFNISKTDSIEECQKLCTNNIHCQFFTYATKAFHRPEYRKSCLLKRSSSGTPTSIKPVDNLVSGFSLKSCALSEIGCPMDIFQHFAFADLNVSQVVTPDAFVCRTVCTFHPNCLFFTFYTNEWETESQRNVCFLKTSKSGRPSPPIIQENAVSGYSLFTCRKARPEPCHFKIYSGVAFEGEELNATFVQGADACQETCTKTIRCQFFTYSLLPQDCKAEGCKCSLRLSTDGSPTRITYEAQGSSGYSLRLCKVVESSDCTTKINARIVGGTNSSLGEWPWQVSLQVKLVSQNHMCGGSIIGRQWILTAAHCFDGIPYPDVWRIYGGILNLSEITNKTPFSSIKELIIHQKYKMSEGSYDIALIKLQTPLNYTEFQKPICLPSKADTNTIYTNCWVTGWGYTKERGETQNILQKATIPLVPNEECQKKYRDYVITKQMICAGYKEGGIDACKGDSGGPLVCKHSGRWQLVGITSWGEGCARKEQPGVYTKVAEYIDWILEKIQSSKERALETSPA

[12] = test system: intrinsic coagulation pathway; assay: Plasma coagulation time, activation with Actin FS reagent; format: biochemical; settings: at 10 μM; plasma activated with Actin FS reagent
[13] = test system: recombinant tissue factor; assay: Plasma coagulation time, activation with Innovin reagent; format: biochemical; settings: plasma activated by Innovin reagent; concentrations up to 30 μM
[14] = test system: AngII-induced retinal vascular permeability; assay: AngII-induced retinal vascular permeability in rats; format: in vivo, rat; settings: AngII and ASP-440 via 2 Alzet pumps for 7 days; Evan's blue dye method
Experimental: Rats were implanted with a single subcutaneous osmotic pump containing Ang II or two pumps containing AngII and ASP-465, as indicated. RVP was measured using vitreous fluorophotometry after 3 days.
RVP was measured using Evan's blue dye method after 7 days.
We examined the effect of the kallikrein inhibitor ASP-465 on RVP induced by angiotensin II (AngII).

[15] = test system: diabetes-induced retinal vascular permeability; assay: Diabetes-induced retinal vascular permeability in rats; format: in vivo, rat; settings: STZ-induced diabetes, 28 days; subcutaneous osmotic pump; Evan's blue dye method
[16] = test system: astrocytes; assay: Plasma kallikrein-induced ERK phosphorylation in astrocytes; format: cell-based; settings: astrocytes exposed to plasma kallikrein
Source text: (§1) We have also studied the effects of plasma kallikrein pathway activation on astrocytes. […] Exposure of astrocytes to plasma kallikrein potently stimulated ERK phosphorylation, and this action of kallikrein on astrocytes is not affected by B2-R antagonism (Hoe140). The effect of kallikrein on astrocytes was blocked by leupeptin, a protease inhibitor and C1-INH (data not shown). […] This is in contrast to the bradykinin effect, which is rapid and transient (data not shown). Plasma kallikrein's effect on ERK phosphorylation in astrocytes is dose dependent, reaching a maximal effect at 100 nM kallikrein (data not shown). […] In addition, plasma kallikrein binding to astrocytes was blocked by AS-440 (FIG. 9B) and C1-INH (data not shown).

[17] = test system: astrocytes; assay: Plasma kallikrein binding to astrocytes; format: cell-based
Source text: as §1

[18] = test system: blood-induced hematoma; assay: Hematoma after intracerebral infusion of autologous blood in diabetic rats; format: in vivo, Sprague-Dawley rats; settings: systemic treatment, 48 h after intracerebral infusion of autologous blood
Experimental: We have compared the response to intracerebral infusion of blood in Sprague-Dawley rats with 1 mo of STZ-induced diabetes with age matched non-diabetic control rats. Fifty μL of autologous whole blood was collected from the tail vein and immediately infused 1 mm anterior, 4 mm lateral and 6 mm in depth to the bregma using a 30 gauge needle at 20 μL per minute. The infusion needle was removed 10 min after injection and the burr hole was sealed with bone wax. Forty-eight hours after intracerebral injection, the animals were perfused with saline and surface hematoma area was examined by measurement of hematoma area relative to total hemisphere area.

[19] = test system: plasma kallikrein-induced hematoma; assay: Hematoma after intracerebral injection of purified activated plasma kallikrein in diabetic rats; format: in vivo, rat; settings: 2 hrs following plasma kallikrein injection, 24 hrs pretreatment via subcutaneous osmotic pump
Source text: The increased response of diabetic rats to the model of intracerebral hemorrhage described above could be due to factors within the blood or due to an increased response in the neurovascular tissue. To evaluate the latter, we performed intracerebral injections of purified activated plasma kallikrein in rats with 1 mo of STZ-induced diabetes or age-matched non-diabetic controls. The contralateral hemisphere was subjected to an equivalent injection with saline vehicle. […]

[20] = test system: ischemia-induced cerebral vascular permeability and infarct; assay: Middle cerebral artery occlusion (MCAO) in rats with 4 weeks of STZ-induced diabetes; format: in vivo, rat; settings: vs diabetic rats receiving vehicle
Experimental: Rats were implanted with a single subcutaneous osmotic pump containing ASP-440, as indicated. Cerebral vascular permeability was measured using Evan's blue dye method 2 hours after occlusion.
Infarct area was measured using Triphenyltetrazolium chloride stain after 24 hours of permanent occlusion.
The effect of diabetes on cerebral vascular permeability induced by ischemia was examined in rats subjected to middle cerebral artery occlusion (MCAO). […] Cerebral vascular permeability following MCAO was increased in the diabetic rats compared with nondiabetic rats (FIG. 14). […] MCAO-induced infarct area is increased in rats with 4 weeks of diabetes compare with nondiabetic rats (FIG. 15).

Chain of purified human plasma kallikrein (PK) (P03952 20-638): as the sequence (P03952 20-638) above

pKi ([1]; PlasmaKallikrein): 7.00
inhibition at 1 µM ([1]; predicted inhibition at 1 μM): 91%
inhibition at 10 µM ([1]; predicted inhibition at 10 μM): 99%
mode of inhibition ([1]; purified human plasma kallikrein): competitive and reversible
pKi ([2]; Factor XIIa): < 4.00
inhibition at 1 µM ([2]; predicted inhibition at 1 μM): 0%
inhibition at 10 µM ([2]; predicted inhibition at 10 μM): 1%
pKi ([3]; Factor XIa): 3.92
inhibition at 1 µM ([3]; predicted inhibition at 1 μM): 0%
inhibition at 10 µM ([3]; predicted inhibition at 10 μM): 7%
pKi ([4]; Factor IXa): < 4.00
inhibition at 1 µM ([4]; predicted inhibition at 1 μM): 0%
inhibition at 10 µM ([4]; predicted inhibition at 10 μM): 0%
pKi ([5]; Tissue Factor-Factor VIIa): 3.80
inhibition at 1 µM ([5]; predicted inhibition at 1 μM): 0%
inhibition at 10 µM ([5]; predicted inhibition at 10 μM): 6%
pKi ([6]; Factor Xa): 4.07
inhibition at 1 µM ([6]; predicted inhibition at 1 μM): 0%
inhibition at 10 µM ([6]; predicted inhibition at 10 μM): 11%
pKi ([7]; Thrombin): 3.96
inhibition at 1 µM ([7]; predicted inhibition at 1 μM): 1%
inhibition at 10 µM ([7]; predicted inhibition at 10 μM): 9%
pKi ([8]; Plasmin): 4.80
inhibition at 1 µM ([8]; predicted inhibition at 1 μM): 6%
inhibition at 10 µM ([8]; predicted inhibition at 10 μM): 38%
pKi ([9]; Porcine Pancreatic Kallikrein): < 4.00
inhibition at 1 µM ([9]; predicted inhibition at 1 μM): 0%
inhibition at 10 µM ([9]; predicted inhibition at 10 μM): 0%
pKi [10]: 6.70
pKi [11]: 6.40
plasma kallikrein binding to astrocytes [17]: blocked
Compound: N=C(N)c1ccc(CNC(=O)c2cnn(Cc3ccccc3)c2)cc1 [ASP-440, 1-Benzyl-1H-pyrazole-4-carboxylic acid 4-carbamimidoyl-benzylamide]
prolongation of coagulation time in plasma [12]: ~50%
effect on coagulation time [13]: without measurable effect
RVP [14]: normal levels of RVP
RVP [15]: normal levels of RVP
effect of kallikrein on ERK phosphorylation [16]: blocked
hematoma area [18]: reduced hematoma area in diabetic rats to a level comparable to that observed in non-diabetic controls
hematoma response [19]: decreased
reduction of cerebral vascular permeability ([20]; 3 days pretreatment via subcutaneous osmotic pump, MCAO for 2 hrs): about 50%
decrease of infarct area ([20]; treatment 3 days prior to MCAO, 24 hours of permanent occlusion): about 40%
